Reference: patent US20090104637A1, “Method and Apparatus for Assaying Blood Clotting” (priority 2006, published 2009)
Marks after values point to notes of the source that are not given here.

Assays:
[1] = cited from earlier work
[2] = tested on: activated protein C (aPC); experiment: Activated protein C (aPC) production from Egg PC lipid coated surfaces with reconstituted thrombomodulin; format: biochemical
From the text: It has been proposed that clot propagation is regulated by thrombomodulin (TM), an inhibitor of clotting located at on the walls of vessels near sites of vascular damage. It has been shown that clot propagation is reduced when TM is homogenously mixed into blood plasma. To mimic the localization of TM on vessel walls, TM was incorporated at the channel walls and tested if this TM was sufficient to stop clot propagation. The inventors incorporated TM into the inert phospholipid surface by forming inert lipid vesicles with reconstituted TM (lipid:TM) and by using the procedure described above to coat the channel walls.
Control experiments verified TM activity on the channel walls was on the same order of magnitude as previously measured for a monolayer of endothelial cells. Measured TM activities are shown in Table 2, which illustrates the quantification of activated protein C (aPC) production from Egg PC lipid coated surfaces with reconstituted thrombomodulin (TM). Corresponding velocities of clot propagation are shown.

[3] = tested on: human blood plasma; experiment: Velocity of clot propagation in a microfluidic channel in the absence of flow; format: biochemical
From the text: To test the prediction that clots propagate as a reactive front with a constant velocity, the inventors used a microfluidic system to regulate and observe clotting in human blood plasma. This system was fabricated in poly(dimethylsiloxane) (PDMS).
FIG. 22 illustrates measurement of the propagation of a blood clot through a microfluidic channel in the absence of flow. Clots propagate with a similar velocity, Fv, in the absence and presence of a membrane-bound inhibitor of clotting, thrombomodulin (TM), on the channel wall. FIG. 22a is a schematic drawing of the procedure for initiating and monitoring clot propagation in a microfluidic device. […] FIG. 22b is a fluorescence microphotograph of a microfluidic device showing that lipids with reconstituted TF (lipid-TF) can be localized to a specific section of a channel in a background of inert lipids. FIG. 22c is a time-lapse fluorescence microphotographs showing position of the clot at 0, 40, and 80 min after plasma was introduced into the channel.
Clot initiation and propagation were spatially separated by patterning the walls of the same channel with different phospholipids (FIG. 22a). […] Clotting was monitored using bright-field microscopy to detect fibrin formation and fluorescence microscopy to detect thrombin-induced cleavage of a peptide-modified coumarin dye. […]

[4] = tested on: donor's whole blood; experiment: On-chip APTT assay with argatroban titration, plug-based microfluidic device, whole blood, 23° C.; format: biochemical, human; conditions: APTT with argatroban / baseline APTT
[5] = tested on: normal pooled plasma and donor plasma; experiment: On-chip APTT assay with argatroban titration, plug-based microfluidic device, plasma, 37° C.; format: biochemical, human
[6] = target: T1, human α-thrombin (Homo sapiens, UniProt P00734); conditions: 37° C., 50 mM Tris-HCl, pH 8.0, 0.15 M NaCl, 1 mM CaCl2, 1 mg/mL BSA; cited from earlier work
T1 construct: A fluorogenic substrate for human α-thrombin

[7] = tested on: normal pooled plasma (NPP); experiment: Initiation of clotting on patches of TF-reconstituted bilayers (timescale of reaction, threshold patch size); format: biochemical, human
Description: Reconstituting tissue factor (TF) to obtain clot-promoting vesicles. TF was reconstituted into mixed vesicles of DLPC/PS/Texas Reds DHPE (79.5/20/0.5 mole percents) at a concentration of 1.25 mg/mL in 1×HEPES-buffered saline/Ca^2+ buffer. For experiments in FIGS. 17, 18, and 19 the TF concentration in the vesicle solution was 0.40 nM (TF:lipid ratio of 2.5×10^−7). Assuming that all the TF was incorporated into the vesicles, the calculated surface concentration would be 0.08 fmol/cm^2. For experiments in Table 1, a final concentration of 0.16 nM of TF (TF:lipid ratio of 1×10^−7) was used. After addition of TF to the vesicle solution, the solution was incubated at 37° C. for 30 min and then stored at 12° C. The vesicles were used within 18 hrs.
Generating patches by backfilling clot-promoting lipids into the photo-removed regions of bilayer. To generate the clot-promoting patches, the patterned bilayers were backfilled with 30 μL of the TF-reconstituted vesicle solution (1.25 mg/mL vesicles in PBS buffer) and allowed to incubate for 4 min at room temperature. Phospholipid bilayers containing active TF have been prepared previously (Contino et al., 1994, Biophys. J. 67: 1113-1116 (1994)). Excess vesicles were removed by vigorous rinsing with a solution of NaCl (150 mM). Patterned bilayers were used immediately in clotting experiments.
Recalcifying the blood plasma samples and adding the thrombi-sensitive dye. All blood plasma samples were recalcified by adding a solution of CaCl2 containing the thrombin-sensitive fluorescent dye, Boc-Asp(OBzl)-Pro-Arg-MCA, (CaCl2, 40 mM; NaCl, 90 mM; and Boc-Asp(OBzl)-Pro-Arg-MCA, 0.4 mM). At the start of each experiment, the plasma and the solution containing CaCl2 were mixed 3:1 by volume. Clotting was detected by the appearance of fibrin using bright field microscopy, and by the appearance of fluorescence signal generated when 4-Methyl-Coumaryl-7-Amine (MCA) was cleaved from Boc-Asp(OBzl)-Pro-Arg-MCA by thrombin.
Inhibiting the factor XII pathway with corn trypsin inhibitor. For experiments measuring clot times for the TF pathway (all experiments using phospholipid bilayers and reconstituted TF), the factor XII (contact) pathway was inhibited with corn trypsin inhibitor (CTI). […]
The threshold patch size of donor platelet rich plasma and normal pooled plasma was measured at 24° C. and 37° C. Clot times were measured on patches presenting clotting stimuli (TF-reconstituted bilayers) in arrays containing patches of different sizes (Table 1). In a single experiment, the clot time on seven different patch sizes was measured. […] Clot time vs. patch size for platelet rich plasma (PRP) from donors was measured.

In the case of `O=Nc1ccccc1C(=O)O` [2-nitrosobenzoic acid], the pKa [1] is listed as < 4.

In the case of thrombomodulin [TM], the aPC production ([2]; Glass, 37 ° C., TM:Egg PC ratio 1:7560) is reported as 10 pmol min^−1 m^−2, the aPC production ([2]; Glass, 37 ° C., TM:Egg PC ratio 1:75600) is reported as 0.3 pmol min^−1 m^−2 and the aPC production ([2]; PDMS, 25 ° C., TM:Egg PC ratio 1:7560) is reported as 5* pmol min^−1 m^−2. For the same molecule, the aPC production ([2]; PDMS, 25 ° C., TM:Egg PC ratio 1:75600) was 10 pmol min^−1 m^−2, the “Front Velocity” value ([3]; Glass, 37 ° C., TM:Egg PC ratio 1:7560, 41 without TM) was 50 μm min^−1 and the “Front Velocity (Fv)” value ([3]; PDMS, 25 ° C., TM:Egg PC ratio 1:75600 (lipid:TM=7.6×10^4), 20 without TM) was 24 μm min^−1.

For `CC1CNc2c(cccc2S(=O)(=O)N[C@@H](CCCNC(=N)N)C(=O)N2CC[C@@H](C)C[C@@H]2C(=O)O)C1` (some centres unmarked) [argatroban], the APTT ratio ([4]; argatroban 0.5 μg/mL) was 2.3, the APTT ratio ([4]; argatroban 1.0 μg/mL) was 2.8 and the APTT ratio ([5]; argatroban 0.5 μg/mL) was “about 2.1”. The APTT ratio ([5]; argatroban 1.0 μg/mL) was 2.7.

In the case of “t-butyloxycarbonyl-β-benzyl-L-aspartyl-L-prolyl-Larginine-4-methyl-coumaryl-7-amide”, the Km [6] is listed as 11 µM and the kcat [6] is listed as 160 s⁻¹.

B1: tissue factor (protein, UniProt P13726 33-295, looked up)
Tissue factor: SGTTNTVAAYNLTWKSTNFKTILEWEPKPVNQVYTVQISTKSGDWKSKCFYTTDTECDLTDEIVKDVKQTYLARVFSYPAGNVESTGSAGEPLYENSPEFTPYLETNLGQPTIQSFEQVGTKVNVTVEDERTLVRRNNTFLSLRDVFGKDLIYTLYYWKSSSSGKKTAKTNTNEFLIDVDKGENYCFSVQAVIPSRTVNRKSTDSPVECMGQEKGEFREIFYIIGAVVFVVIILVIILAISLHKCRKAGVGQSWKENSPLNVS
modifications: in phospholipid bilayers
notes: human recombinant tissue factor reconstituted in phospholipid bilayers, clotting stimulus
For B1, the “threshold patch size, ptr” value ([7]; [TF]=0.16 nM in vesicles) was 160±32 μm, the “timescale of reaction, tR” value ([7]; [TF]=0.16 nM in vesicles) was 206 s and the “threshold patch size, ptr” value ([7]; [TF]=0.40 nM in vesicles) was 75±25 μm. The “timescale of reaction, tR” value ([7]; [TF]=0.40 nM in vesicles) was 30 s.
